Measured values taken from patent US20260055096A1, “AZOLE PESTICIDAL COMPOUNDS” (BASF SE, priority 2022, published 2026).

How the values were obtained:
Format in all cases: in vivo
[1] = system: boll weevil (Anthonomus grandis); assay: Example B.3: Action on boll weevil (Anthonomus grandis), egg and larval mortality on insect diet; details: 120 h, egg and larval mortality after 5 days, read-out: mortality in comparison with untreated controls
Description: For evaluating control of boll weevil (Anthonomus grandis) the test unit consisted of 96-well-microtiter plates containing an insect diet and 5-10 A. grandis eggs.
The compounds were formulated using a solution containing 75% (v/v) water and 25% (v/v) DMSO. Different concentrations of formulated compounds were sprayed onto the insect diet at […], using a custom-built micro atomizer, at two replications.
After application, microtiter plates were incubated at about 25±1C and about 75±5% relative humidity for 5 days. Egg and larval mortality were then visually assessed.

[2] = system: Southern armyworm (Spodoptera eridania), 2nd instar larvae; assay: Example B.7: Action on southern armyworm (Spodoptera eridania), 2nd instar larvae on sprayed lima bean plants; details: 96 h, 4 days after treatment, read-out: mortality in comparison with untreated controls
Description: The active compounds were formulated by a Tecan liquid handler in 100% cyclohexanone as a 10,000-ppm solution supplied in tubes. The 10,000-ppm solution was serially diluted in 100% cyclohexanone to make interim solutions. These served as stock solutions for which final dilutions were made by the Tecan in 50% acetone:50% water (v/v) into 10 or 20 ml glass vials. A nonionic surfactant (Kinetic®) was included in the solution at a volume of 0.01% (v/v). The vials were then inserted into an automated electrostatic sprayer equipped with an atomizing nozzle for application to plants/insects.
Lima bean plants (variety Sieva) were grown 2 plants to a pot and selected for treatment at the 1st true leaf stage. Test solutions were sprayed onto the foliage by an automated electrostatic plant sprayer equipped with an atomizing spray nozzle. The plants were dried in the sprayer fume hood and then removed from the sprayer. Each pot was placed into perforated plastic bags with a zip closure. About 10 to 11 armyworm larvae were placed into the bag and the bags zipped closed. Test plants were maintained in a growth room at about 25° C. and about 20-40% relative humidity for 4 days, avoiding direct exposure to fluorescent light (24-hour photoperiod) to prevent trapping of heat inside the bags. Mortality and reduced feeding were assessed 4 days after treatment, compared to untreated control plants.

[3] = system: tobacco budworm (Heliothis virescens); assay: Example B.5: Action on tobacco budworm (Heliothis virescens), egg and larval mortality on insect diet; details: 120 h, egg and larval mortality after 5 days, read-out: mortality in comparison with untreated controls
Description: For evaluating control of tobacco budworm (Heliothis virescens) the test unit consisted of 96-well-microtiter plates containing an insect diet and 15-25 H. virescens eggs.
The compounds were formulated using a solution containing 75% v/v water and 25% v/v DMSO. Different concentrations of formulated compounds were sprayed onto the insect diet at 10 μl, using a custom-built micro atomizer, at two replications.
After application, microtiter plates were incubated at about 28±1C and about 80±5% relative humidity for 5 days. Egg and larval mortality were then visually assessed.

[4] = system: yellow fever mosquito (Aedes aegypti); assay: whole plant or invertebrate; details: 48 h, larval mortality after 2 days, read-out: mortality in comparison with untreated controls
Description: For evaluating control of yellow fever mosquito (Aedes aegypti) the test unit consisted of 96-well-microtiter plates containing 200 μl of tap water per well and 5-15 freshly hatched A. aegypti larvae.
The active compounds or mixtures were formulated using a solution containing 75% (v/v) water and 25% (v/v) DMSO. Different concentrations of formulated compounds or mixtures were sprayed onto the insect diet at 2.5 μl, using a custom-built micro atomizer, at two replications.
For experimental mixtures in these tests identical volumes of both mixing partners at the desired concentrations respectively, were mixed together.
After application, microtiter plates were incubated at 28 #1° C., 80 #5% RH for 2 days. Larval mortality was then visually assessed.

[5] = system: Diamond back moth (Plutella xylostella); assay: Example B.8: Action on diamond back moth (Plutella xylostella), egg and larval mortality on insect diet in microtiter plates; details: for egg and larval mortality: comparative experiment vs prior art compounds; for mortality at 800 ppm: Plutella xylostella, 120 h, egg and larval mortality after 5 days, read-out: mortality in comparison with untreated controls
Description: For evaluating control of diamond back moth (Plutella xylostella) the test unit consisted of 96-well-microtiter plates containing an insect diet and 15-25 P. xylostella eggs. The compounds or mixtures were formulated using a solution containing 75% water and 25% DMSO. Different concentrations of formulated compounds or mixtures were sprayed onto the insect diet at 5 μl, using a custom-built micro atomizer, at two replications. For experimental mixtures in these tests identical volumes of both mixing partners at the desired concentrations respectively, were mixed together. After application, microtiter plates were incubated at 28±1° C., 80±5% RH for 5 days. Egg and larval mortality was then visually assessed.

[6] = system: Diamond back moth (Plutella xylostella); assay: Example B.6: Action on diamond back moth (Plutella xylostella), cabbage leaf dip, 3rd instar larvae; details: foliar, 72 hours after treatment, read-out: mortality in comparison with untreated controls
Description: The active compound is dissolved at the desired concentration in a mixture of 1:1 (v/v) distilled water: acetone. Surfactant (Kinetic® HV) is added at a rate of 0.01% (v/v). The test solution is prepared at the day of use.
Leaves of cabbage were dipped in test solution and air-dried. Treated leaves were placed in petri dishes lined with moist filter paper and inoculated with ten 3rd instar larvae. Mortality was recorded 72 hours after treatment. Feeding damages were also recorded using a scale of 0-100%.

[7] = system: Orchid thrips (Dichromothrips corbetti); assay: Example B.2: Action on orchid thrips (Dichromothrips corbetti), floral-immersion technique; details: 72 hours after treatment, read-out: mortality in comparison with untreated controls
Description: Dichromothrips corbetti adults used for bioassay were obtained from a colony maintained continuously under laboratory conditions. For testing purposes, the test compound is diluted in a 1:1 mixture of acetone:water (vol:vol), plus Kinetic® HV at a rate of 0.01% v/v.
Thrips potency of each compound was evaluated by using a floral-immersion technique. All petals of individual, intact orchid flowers were dipped into treatment solution and allowed to dryin Petri dishes. Treated petals were placed into individual re-sealable plastic along with about 20 adult thrips. All test arenas were held under continuous light and a temperature of about 28° C. for duration of the assay. After 3 days, the numbers of live thrips were counted on each petal. The percent mortality was recorded 72 hours after treatment.

SMILES	mortality at 800 ppm [1]	mortality at 300 ppm [2]	mortality at 800 ppm [3]	mortality at 800 ppm [4]	egg and larval mortality ([5]; 25 ppm)	egg and larval mortality ([5]; 100 ppm)	mortality at 800 ppm [5]	mortality at 300 ppm [6]	mortality at 300 ppm [7]
CC(C)c1ccccc1N1C(=O)CS/C1=N\C(=O)Nc1ccc(-c2nc(NC(=O)c3cccc(OC(F)(F)F)c3)n(C)n2)cc1 [Example C-126]	≥ 75%	≥ 75%	≥ 75%	≥ 50%	75	100	≥ 75%	–	–
Cc1ccc(C(C)C)c(N2C(=O)CS/C2=N\C(=O)Nc2ccc(-c3nn(C)c(NC(=O)c4ccc(C(F)(F)F)cc4)c3C)cc2)c1 [Example C-1, N-[5-[4-[[(Z)-[3-(2-isopropyl-5-methyl-phenyl)-4-oxo-thiazolidin-2-ylidene]carbamoyl]amino]phenyl]-2,4-dimethyl-pyrazol-3-yl]-4-(trifluoromethyl)benzamide]	≥ 75%	≥ 75%	≥ 75%	≥ 50%	–	–	–	≥ 75%	≥ 75%
Cc1ccc(C(C)C)c(N2C(=O)CS/C2=N\C(=O)Nc2ccc(-c3nn(C)c(NC(=O)c4ccc(OC(F)(F)F)cc4)c3C)cc2Cl)c1 [Example C-8, N-[5-[3-chloro-4-[[(Z)-[3-(2-isopropyl-5-methyl-phenyl)-4-oxo-thiazolidin-2-ylidene]carbamoyl]amino]phenyl]-2,4-dimethyl-pyrazol-3-yl]-4-(trifluoromethoxy)benzamide]	≥ 75%	≥ 75%	≥ 75%	≥ 50%	–	–	–	≥ 75%	≥ 75%
Cc1ccc(C(C)C)c(N2C(=O)CS/C2=N\C(=O)Nc2ccc(-c3nn(C)c(NC(=O)c4ccc(OC(F)(F)F)cc4)c3C#N)cc2)c1 [Example C-7, N-[4-cyano-5-[4-[[(Z)-[3-(2-isopropyl-5-methyl-phenyl)-4-oxo-thiazolidin-2-ylidene]carbamoyl]amino]phenyl]-2-methyl-pyrazol-3-yl]-4-(trifluoromethoxy)benzamide]	≥ 75%	≥ 75%	≥ 75%	≥ 50%	–	–	–	≥ 75%	≥ 75%
Cc1ccc(C(C)C)c(NC(=S)NC(=O)Nc2ccc(-c3nn(C)c(NC(=O)c4ccc(C(F)(F)F)cc4)c3C)cc2)c1 [Example C-3, N-[5-[4-[(2-isopropyl-5-methyl-phenyl)carbamothioylcarbamoylamino]phenyl]-2,4-dimethyl-pyrazol-3-yl]-4-(trifluoromethyl)benzamide]	≥ 75%	≥ 75%	≥ 75%	≥ 50%	–	–	–	≥ 75%	≥ 75%
CC(=O)OCS/C(=N\C(=O)Nc1ccc(-c2nn(C)c(NC(=O)c3ccc(C(F)(F)F)cc3)c2C)cc1)Nc1cc(C)ccc1C(C)C [Example C-2, [(Z)-N′-[[4-[1,4-dimethyl-5-[[4-(trifluoromethyl)benzoyl]amino]pyrazol-3-yl]phenyl]carbamoyl]-N-(2-isopropyl-5-methyl-phenyl)carbamimidoyl]sulfanylmethyl acetate]	≥ 75%	≥ 75%	≥ 75%	≥ 50%	–	–	–	≥ 75%	≥ 75%
Cc1ccc(C(C)C)c(N2C(=O)CS/C2=N\C(=O)Nc2ccc(-c3nc(NC(=O)c4ccc(OC(F)(F)F)cc4)n(C)n3)cc2)c1 [Example C-5, N-[5-[4-[[(Z)-[3-(2-isopropyl-5-methyl-phenyl)-4-oxo-thiazolidin-2-ylidene]carbamoyl]amino]phenyl]-2-methyl-1,2,4-triazol-3-yl]-4-(trifluoromethoxy)benzamide]	≥ 75%	≥ 75%	≥ 75%	–	–	–	–	≥ 75%	≥ 75%
CC(C)c1ccccc1N1C(=O)CS/C1=N\C(=O)Nc1ccc(-c2nc(Nc3cccc(OC(F)(F)F)c3)n(C)n2)cc1 [EP3974414 I-006, reference compound]	–	–	–	–	38	0	–	–	–
Cc1ccc(C(C)C)c(N2C(=O)CS/C2=N\C(=O)Nc2ccc(-c3nn(C)c(N(C)C(=O)c4ccc(C(F)(F)F)cc4)c3C)cc2)c1 [Example C-4, N-[5-[4-[[(Z)-[3-(2-isopropyl-5-methyl-phenyl)-4-oxo-thiazolidin-2-ylidene]carbamoyl]amino]phenyl]-2,4-dimethyl-pyrazol-3-yl]-N-methyl-4-(trifluoromethyl)benzamide]	≥ 75%	≥ 75%	≥ 75%	≥ 50%	–	–	–	≥ 75%	≥ 75%
Cc1ccc(C(C)C)c(N2C(=O)CS/C2=N\C(=O)N(C)c2ccc(-c3nn(C)c(NC(=O)c4ccc(OC(F)(F)F)cc4)c3C)cc2)c1 [Example C-112, N-[5-[4-[[(Z)-[3-(2-isopropyl-5-methyl-phenyl)-4-oxo-thiazolidin-2-ylidene]carbamoyl]-methyl-amino]phenyl]-2,4-dimethyl-pyrazol-3-yl]-4-(trifluoromethoxy)benzamide]	≥ 75%	–	≥ 75%	≥ 50%	–	–	≥ 75%	–	–
CC(C)c1ccccc1N1C(=O)CS/C1=N\C(=O)Nc1ccc(-c2nc(NC(=O)c3ccc(OC(F)(F)F)cc3)n(C)n2)cc1 [Example C-119]	≥ 75%	≥ 75%	–	–	75	–	≥ 75%	–	–
CC(C)c1ccccc1N1C(=O)CS/C1=N\C(=O)Nc1ccc(-c2nc(Nc3ccc(OC(F)(F)F)cc3)n(C)n2)cc1 [EP3974414 I-001, reference compound]	–	–	–	–	0	–	–	–	–
